Drawing on US20070049564A1 (Wyeth, priority 2005, published 2007), this text covers MIC for 14 compounds.

Broadly, the MIC is the lowest concentration found to suppress growth.

Converted amounts (≈) assume the structure as drawn. Where two headings read alike, the source gives them in different places.

In one experiment the test system is E. coli. Nature of the experiment: Range of MIC for E. coli strains. The following applies: Escherichia coli.
A further experiment relates to Staph. Briefly: Range of MIC for Staph. strains, including MRSA. The following applies: Staphylococcus aureus, MRSA.
Setting [1] is: 20 h, read-out: Range of MIC, E. coli (Mouse Serum).
The mark [2] stands for this setting: read-out: Range of MIC, E. coli (Water).
[3] abbreviates: read-out: Range of MIC, Staph (Mouse Serum).
Setting [4] is: read-out: Range of MIC, Staph (Water).

`Cc1cccc(C)c1C(=O)OCOC(=O)N(CC(=O)Nc1cc(N(C)C)c2c(c1O)C(=O)C1=C(O)[C@]3(O)C(=O)C(C(N)=O)=C(O)[C@@H](N(C)C)[C@@H]3C[C@@H]1C2)C(C)(C)C` [Example 66, ({[(2-{[(5aR,6aS,7S,10aS)-9-(aminocarbonyl)-4,7-bis(dimethylamino)-1,8,10a,11-tetrahydroxy-10,12-dioxo-5,5a,6,6a,7,10,10a,12-octahydrotetracen-2-yl]amino}-2-oxoethyl)(tert-butyl)amino]carbonyl}oxy)methyl 2,6-dimethylbenzoate]: the MIC in the experiment with E. coli (setting [1]) was over 128 µg/mL; with E. coli (setting [2]) it was over 128 µg/mL; in the experiment on Staph. (setting [3]) it was 1 to 16 µg/mL (≈ 1.26 to 20.2 µM); with Staph. (setting [4]), 2 to 16 µg/mL (≈ 2.53 to 20.2 µM).
Take `CN(C)c1cc(NC(=O)CN(C(=O)OCOC(=O)CC2CCCCC2)C(C)(C)C)c(O)c2c1C[C@H]1C[C@H]3[C@H](N(C)C)C(O)=C(C(N)=O)C(=O)[C@@]3(O)C(O)=C1C2=O` [Example 65, ({[(2-{[(5aR,6aS,7S,10aS)-9-(aminocarbonyl)-4,7-bis(dimethylamino)-1,8,10a,11-tetrahydroxy-10,12-dioxo-5,5a,6,6a,7,10,10a,12-octahydrotetracen-2-yl]amino}-2-oxoethyl)(tert-butyl)amino]carbonyl}oxy)methyl cyclohexylacetate]: the MIC was 0.12 to 0.5 µg/mL (≈ 0.153 to 0.638 µM) in the experiment on E. coli (setting [1]), 16 µg/mL (≈ 20.4 µM) with E. coli (setting [2]), 0.12 to 0.5 µg/mL (≈ 0.153 to 0.638 µM) in the experiment on Staph. (setting [3]) and 0.12 to 1 µg/mL (≈ 0.153 to 1.28 µM) in the experiment on Staph. (setting [4]).
As for `CN(C)c1cc(NC(=O)CN(C(=O)OCOC(=O)Cc2cc(C(F)(F)F)cc(C(F)(F)F)c2)C(C)(C)C)c(O)c2c1C[C@H]1C[C@H]3[C@H](N(C)C)C(O)=C(C(N)=O)C(=O)[C@@]3(O)C(O)=C1C2=O` [Example 101, ({[(2-{[(5aR,6aS,7S,10aS)-9-(aminocarbonyl)-4,7-bis(dimethylamino)-1,8,10a,11-tetrahydroxy-10,12-dioxo-5,5a,6,6a,7,10,10a,12-octahydrotetracen-2-yl]amino}-2-oxoethyl)(tert-butyl)amino]carbonyl}oxy)methyl [3,5-bis(trifluoromethyl)phenyl]acetate], the MIC was 1 µg/mL (≈ 1.09 µM) in the experiment with E. coli (setting [1]), 16 to 32 µg/mL (≈ 17.5 to 35 µM) in the experiment on E. coli (setting [2]), 0.5 to 2 µg/mL (≈ 0.547 to 2.19 µM) in the experiment with Staph. (setting [3]) and 4 to 16 µg/mL (≈ 4.38 to 17.5 µM) with Staph. (setting [4]).
Take `CN(C)c1cc(NC(=O)CN(C(=O)OCOC(=O)c2ccccc2CCc2ccccc2)C(C)(C)C)c(O)c2c1C[C@H]1C[C@H]3[C@H](N(C)C)C(O)=C(C(N)=O)C(=O)[C@@]3(O)C(O)=C1C2=O` [Example 103, ({[(2-{[(5aR,6aS,7S,10aS)-9-(aminocarbonyl)-4,7-bis(dimethylamino)-1,8,10a,11-tetrahydroxy-10,12-dioxo-5,5a,6,6a,7,10,10a,12-octahydrotetracen-2-yl]amino}-2-oxoethyl)(tert-butyl)amino]carbonyl}oxy)methyl 2-(2-phenylethyl)benzoate]: the MIC is 8 to 16 µg/mL (≈ 9.22 to 18.4 µM) in the experiment with E. coli (setting [1]), over 64 µg/mL in the experiment with E. coli (setting [2]) and 8 to 16 µg/mL (≈ 9.22 to 18.4 µM) in the experiment with Staph. (setting [3]).
On to `CN(C)c1cc(NC(=O)CN(C(=O)OCOC(=O)c2c3ccccc3cc3ccccc23)C(C)(C)C)c(O)c2c1C[C@H]1C[C@H]3[C@H](N(C)C)C(O)=C(C(N)=O)C(=O)[C@@]3(O)C(O)=C1C2=O` [Example 106, ({[(2-{[(5aR,6aS,7S,10aS)-9-(aminocarbonyl)-4,7-bis(dimethylamino)-1,8,10a,11-tetrahydroxy-10,12-dioxo-5,5a,6,6a,7,10,10a,12-octahydrotetracen-2-yl]amino}-2-oxoethyl)(tert-butyl)amino]carbonyl}oxy)methyl anthracene-9-carboxylate], for which the MIC in the experiment on E. coli (setting [1]), in the experiment on E. coli (setting [2]), in the experiment on Staph. (setting [3]) and in the experiment with Staph. (setting [4]) was over 64 µg/mL each time.
With `CN(C)c1cc(NC(=O)CN(C(=O)OCOC(=O)C(C)(C)C)C(C)(C)C)c(O)c2c1C[C@H]1C[C@H]3[C@H](N(C)C)C(O)=C(C(N)=O)C(=O)[C@@]3(O)C(O)=C1C2=O` [Example 68, ({[(2-{[(5aR,6aS,7S,10aS)-9-(aminocarbonyl)-4,7-bis(dimethylamino)-1,8,10a,11-tetrahydroxy-10,12-dioxo-5,5a,6,6a,7,10,10a,12-octahydrotetracen-2-yl]amino}-2-oxoethyl)(tert-butyl)amino]carbonyl}oxy)methyl pivalate], the MIC with E. coli (setting [1]) fell in the range of 0.12 to 1 µg/mL (≈ 0.161 to 1.34 µM); in the experiment with E. coli (setting [2]), 2 to 8 µg/mL (≈ 2.69 to 10.8 µM); in the experiment with Staph. (setting [3]), 0.12 to 0.25 µg/mL (≈ 0.161 to 0.336 µM); in the experiment with Staph. (setting [4]), 0.12 to 1 µg/mL (≈ 0.161 to 1.34 µM).
As for `CN(C)c1cc(NC(=O)CN(C(=O)OCOC(=O)c2cc3ccccc3o2)C(C)(C)C)c(O)c2c1C[C@H]1C[C@H]3[C@H](N(C)C)C(O)=C(C(N)=O)C(=O)[C@@]3(O)C(O)=C1C2=O` [Example 69, ({[(2-{[(5aR,6aS,7S,10aS)-9-(aminocarbonyl)-4,7-bis(dimethylamino)-1,8,10a,11-tetrahydroxy-10,12-dioxo-5,5a,6,6a,7,10,10a,12-octahydrotetracen-2-yl]amino}-2-oxoethyl)(tert-butyl)amino]carbonyl}oxy)methyl 1-benzofuran-2-carboxylate], the MIC lay in the range of 0.12 to 0.5 µg/mL (≈ 0.149 to 0.622 µM) in the experiment on E. coli (setting [1]), 8 to 64 µg/mL (≈ 9.95 to 79.6 µM) with E. coli (setting [2]), 0.12 to 0.25 µg/mL (≈ 0.149 to 0.311 µM) in the experiment on Staph. (setting [3]) and 0.12 to 1 µg/mL (≈ 0.149 to 1.24 µM) in the experiment with Staph. (setting [4]).
The corresponding values for `CN(C)c1cc(NC(=O)CN(C(=O)OCOC(=O)c2cccnc2)C(C)(C)C)c(O)c2c1C[C@H]1C[C@H]3[C@H](N(C)C)C(O)=C(C(N)=O)C(=O)[C@@]3(O)C(O)=C1C2=O` [Example 88, ({[(2-{[(5aR,6aS,7S,10aS)-9-(aminocarbonyl)-4,7-bis(dimethylamino)-1,8,10a,11-tetrahydroxy-10,12-dioxo-5,5a,6,6a,7,10,10a,12-octahydrotetracen-2-yl]amino}-2-oxoethyl)(tert-butyl)amino]carbonyl}oxy)methyl nicotinate] are 0.5 to 2 µg/mL (≈ 0.654 to 2.62 µM), 8 to 16 µg/mL (≈ 10.5 to 20.9 µM), 1 to 4 µg/mL (≈ 1.31 to 5.23 µM) and 4 to 16 µg/mL (≈ 5.23 to 20.9 µM).
`Cc1c(C(=O)OCOC(=O)N(CC(=O)Nc2cc(N(C)C)c3c(c2O)C(=O)C2=C(O)[C@]4(O)C(=O)C(C(N)=O)=C(O)[C@@H](N(C)C)[C@@H]4C[C@@H]2C3)C(C)(C)C)oc2ccccc12` [Example 100, ({[(2-{[(5aR,6aS,7S,10aS)-9-(aminocarbonyl)-4,7-bis(dimethylamino)-1,8,10a,11-tetrahydroxy-10,12-dioxo-5,5a,6,6a,7,10,10a,12-octahydrotetracen-2-yl]amino}-2-oxoethyl)(tert-butyl)amino]carbonyl}oxy)methyl 3-methyl-1-benzofuran-2-carboxylate]: the MIC was 2 µg/mL (≈ 2.45 µM) in the experiment with E. coli (setting [1]), 0.5 to 1 µg/mL (≈ 0.611 to 1.22 µM) in the experiment with Staph. (setting [3]) and 2 to 4 µg/mL (≈ 2.45 to 4.89 µM) in the experiment with Staph. (setting [4]).
With `CN(C)c1cc(NC(=O)CN(C(=O)OCOC(=O)c2cccn2C)C(C)(C)C)c(O)c2c1C[C@H]1C[C@H]3[C@H](N(C)C)C(O)=C(C(N)=O)C(=O)[C@@]3(O)C(O)=C1C2=O` [Example 70], the MIC in the experiment on E. coli (setting [1]) was 4 to 8 µg/mL (≈ 5.22 to 10.4 µM); with E. coli (setting [2]), over 64 µg/mL; with Staph. (setting [3]), 1 to 4 µg/mL (≈ 1.3 to 5.22 µM); with Staph. (setting [4]), 2 to 4 µg/mL (≈ 2.61 to 5.22 µM).
In the case of `CC(=O)Nc1ccc(C(=O)OCOC(=O)N(CC(=O)Nc2cc(N(C)C)c3c(c2O)C(=O)C2=C(O)[C@]4(O)C(=O)C(C(N)=O)=C(O)[C@@H](N(C)C)[C@@H]4C[C@@H]2C3)C(C)(C)C)cc1` [Example 105], the MIC in the experiment with E. coli (setting [1]) was 2 µg/mL (≈ 2.44 µM); with E. coli (setting [2]), over 64 µg/mL; with Staph. (setting [3]) it was 1 to 2 µg/mL (≈ 1.22 to 2.44 µM).
As for `Cc1cc(C)c(C(=O)OCOC(=O)N(CC(=O)Nc2cc(N(C)C)c3c(c2O)C(=O)C2=C(O)[C@]4(O)C(=O)C(C(N)=O)=C(O)[C@@H](N(C)C)[C@@H]4C[C@@H]2C3)C(C)(C)C)c(C)c1` [Example 95, ({[(2-{[(5aR,6aS,7S,10aS)-9-(aminocarbonyl)-4,7-bis(dimethylamino)-1,8,10a,11-tetrahydroxy-10,12-dioxo-5,5a,6,6a,7,10,10a,12-octahydrotetracen-2-yl]amino}-2-oxoethyl)(tert-butyl)amino]carbonyl}oxy)methyl 2,4,6-trimethylbenzoate], the MIC in the experiment with E. coli (setting [1]), with E. coli (setting [2]) and with Staph. (setting [4]) was over 64 µg/mL throughout.
Take `COc1cc(C(=O)OCOC(=O)N(CC(=O)Nc2cc(N(C)C)c3c(c2O)C(=O)C2=C(O)[C@]4(O)C(=O)C(C(N)=O)=C(O)[C@@H](N(C)C)[C@@H]4C[C@@H]2C3)C(C)(C)C)cc(OC)c1OC` [Example 97, ({[(2-{[(5aR,6aS,7S,10aS)-9-(aminocarbonyl)-4,7-bis(dimethylamino)-1,8,10a,11-tetrahydroxy-10,12-dioxo-5,5a,6,6a,7,10,10a,12-octahydrotetracen-2-yl]amino}-2-oxoethyl)(tert-butyl)amino]carbonyl}oxy)methyl 3,4,5-trimethoxybenzoate]: the MIC with E. coli (setting [1]) is 4 to 8 µg/mL (≈ 4.68 to 9.37 µM); with E. coli (setting [2]), over 64 µg/mL; in the experiment with Staph. (setting [3]), 1 to 4 µg/mL (≈ 1.17 to 4.68 µM); in the experiment with Staph. (setting [4]), 4 to 8 µg/mL (≈ 4.68 to 9.37 µM).
On to `CN(C)c1cc(NC(=O)CN(C(=O)OCOC(=O)Cc2ccccc2)C(C)(C)C)c(O)c2c1C[C@H]1C[C@H]3[C@H](N(C)C)C(O)=C(C(N)=O)C(=O)[C@@]3(O)C(O)=C1C2=O` [Example 67, ({[(2-{[(5aR,6aS,7S,10aS)-9-(aminocarbonyl)-4,7-bis(dimethylamino)-1,8,10a,11-tetrahydroxy-10,12-dioxo-5,5a,6,6a,7,10,10a,12-octahydrotetracen-2-yl]amino}-2-oxoethyl)(tert-butyl)amino]carbonyl}oxy)methyl phenylacetate], for which the MIC in the experiment with E. coli (setting [1]) was in the range of 0.12 to 0.25 µg/mL (≈ 0.154 to 0.321 µM); in the experiment with E. coli (setting [2]) it was 8 to 32 µg/mL (≈ 10.3 to 41.1 µM); in the experiment with Staph. (setting [3]) it was 0.12 to 0.25 µg/mL (≈ 0.154 to 0.321 µM); with Staph. (setting [4]), 0.12 to 1 µg/mL (≈ 0.154 to 1.29 µM).
